Holding throughout (assay type): cell-based
Assay [1] concerns L-1210 mouse leukemia cells. Nature of the assay: L-1210 tube dilution assay, inhibition of mouse leukemia cell growth in vitro. Particulars: for IC50 / IC90: Mus musculus; for inhibition of growth of L-1210 cells (in words): in vitro. The source says: ID50 and ID90 refer to the concentration of compound needed to inhibit cell growth by 50 and 90 percent, respectively.
The next assay concerns P. vulgaris. Description: In vitro disk plate assay, Proteus vulgaris. Particulars: 18 h; Proteus vulgaris; above-identified in vitro disk plate assay; medium not given. How it is done: (§1) The antibacterial spectrum of 4-(1-azindinyl)-6-phenyl-2-pyrimidinamine was determined in an in vitro disk plate assay. The assay procedure is as follows:
(§2) A solution of 4-(1-aziridinyl)-6-phenyl-2-pyrimidinamine was prepared at 1 mg/ml in distilled water. Paper assay disks (1/2 inch) were dripped into the solution and spotted on seeded agar trays.

The next assay concerns test organisms. Description: In vitro disk plate assay, test organisms other than Proteus vulgaris. How it is done:
as §1, §2

[2] abbreviates: L1210 cells in vitro, 50 percent inhibition of cell growth, read-out: L1210 ID50.
The mark [3] stands for this setting: L1210 cells in vitro, 90 percent inhibition of cell growth, read-out: L1210 ID90.

Data on 14 compounds can be found in patent US4795812A, “4-substituted-6-aryl-pyrimidine compounds” (The Upjohn Company, priority 1986, dated 1989).

≈ marks a conversion by molar mass, not a printed value. Like-named read-outs stand apart in the source and are kept apart here.

As to `Nc1nc(Cl)c(F)c(-c2ccccc2)n1` [drawing 7], the IC50 in assay [1] (setting [2]) was 0.18 µg/mL (≈ 0.805 µM). Moreover, in assay [1] (setting [3]), the IC90 is 0.55 µg/mL (≈ 2.46 µM). With `Nc1nc(Cl)c(F)c(-c2ccccc2)n1` [Example 4, 4-chloro-5-fluoro-6-phenyl-2-pyrimidinamine], the “inhibition of growth of L-1210 cells (in words)” value (shortened to “inhibition … (in words)”) in assay [1] is “inhibit the growth of L-1210 mouse leukemia cells in vitro”. Turning to `Nc1nc(Cl)c(I)c(-c2ccccc2)n1` [drawing 9], the IC50 in assay [1] (setting [2]) stood at 1.8 µg/mL (≈ 5.43 µM). Also, in assay [1] (setting [3]), the IC90 turned out to be 3.9 µg/mL (≈ 11.8 µM). `Nc1nc(Cl)c(I)c(-c2ccccc2)n1` [Example 8, 4-chloro-5-iodo-6-phenyl-2-pyrimidinamine]: in assay [1], the “inhibition … (in words)” value is “inhibit the growth of L-1210 mouse leukemia cells in vitro”. Consider `Nc1nc(Cl)cc(-c2ccccc2)n1` [drawing 11], for which, in assay [1] (setting [2]), the IC50 came out at 8.2 µg/mL (≈ 39.9 µM). Further, the IC90 in assay [1] (setting [3]) was 19 µg/mL (≈ 92.4 µM). In the case of `Nc1nc(Cl)c(Cl)c(-c2ccccc2)n1` [drawing 8], in assay [1] (setting [2]), the IC50 stood at 0.91 µg/mL (≈ 3.79 µM). Moreover, the IC90 in assay [1] (setting [3]) was 2.1 µg/mL (≈ 8.75 µM). As a reminder, the zone of inhibition is the size of the clear area around the sample on an inoculated plate. In the assay on P. vulgaris, `Nc1nc(Cl)cc(-c2ccccc2)n1` [Example 1, 4-chloro-6-phenyl-2-pyrimidinamine] showed a zone of inhibition at 1000 µg/mL of 20 mm. The “inhibition … (in words)” value in assay [1] is “inhibit the growth of L-1210 mouse leukemia cells in vitro”. The “antibacterial activity against the other test organisms (in words)” value with test organisms is reported as “No other antibacterial activity against the test organisms was observed”. With `Nc1nc(-c2ccccc2)c(Br)c(N2CC2)n1` [Example 3, 4-(1-aziridyl)-5-bromo-6-phenyl-2-pyrimidinamine], in assay [1], the “inhibition … (in words)” value was “inhibit the growth of L-1210 mouse leukemia cells in vitro”.

With `Nc1nc(-c2ccccc2)c(Br)c(N2CC2)n1` [drawing 5], the IC50 in assay [1] (L1210, read-out: L1210 ID50) is 1.2 µg/mL (≈ 4.12 µM). Also, in assay [1] (L1210, read-out: L1210 ID90), the IC90 stood at 3.2 µg/mL (≈ 11 µM). For `Nc1nc(Cl)c(Cl)c(-c2ccccc2)n1` [Example 7, 4,5-dichloro-6-phenyl-2-pyrimidinamine], the “inhibition … (in words)” value in assay [1] is recorded as “inhibit the growth of L-1210 mouse leukemia cells in vitro”. Same read-out and setting: the same measure for `Nc1nc(Cl)c(Br)c(-c2ccccc2)n1` [Example 6, 5-bromo-4-chloro-6-phenyl-2-pyrimidinamine]: “inhibit the growth of L-1210 mouse leukemia cells in vitro”.

For the compound `Nc1nc(NCCN2CC2)c(F)c(-c2ccccc2)n1` [drawing 6], the IC50 in assay [1] (L1210, read-out: L1210 ID50) amounted to 0.78 µg/mL (≈ 2.85 µM). Also, the IC90 in assay [1] (L1210, read-out: L1210 ID90) stood at 2.1 µg/mL (≈ 7.68 µM). Consider `Nc1nc(Cl)c(Br)c(-c2ccccc2)n1` [drawing 10], for which the IC50 in assay [1] (setting [2]) came to 0.64 µg/mL (≈ 2.25 µM). For the same compound, the IC90 in assay [1] (setting [3]) came to 1.6 µg/mL (≈ 5.62 µM). Turning to `Nc1nc(NCCN2CC2)c(F)c(-c2ccccc2)n1` [Example 5, N'-[2-(1-aziridyl)ethyl]-5-fluoro-6-phenyl-2,4-pyrimidinediamine], the “inhibition … (in words)” value in assay [1] was “inhibit the growth of L-1210 mouse leukemia cells in vitro”.
